From PubChem BioAssay (NCI)
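Method: 48-hour compound exposure of cells in 96-well plates, five concentrations, linear interpolation of endpoints. At the GI50, growth is halved. TGI is the concentration that stops growth completely.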

Legend:
Experiment in all cases: growth of human tumour cells (NCI), 48 h
IGROV1 ovarian = system: IGROV1 ovarian
OVCAR-8 ovarian = system: OVCAR-8 ovarian
SF-268 CNS = system: SF-268 CNS
LOX IMVI melanoma = system: LOX IMVI melanoma
UACC-257 melanoma = system: UACC-257 melanoma
U251 CNS = system: U251 CNS
HS 578T breast = system: HS 578T breast
NCI/ADR-RES ovarian = system: NCI/ADR-RES ovarian
SK-MEL-2 melanoma = system: SK-MEL-2 melanoma
PC-3 prostate = system: PC-3 prostate
BT-549 breast = system: BT-549 breast
OVCAR-4 ovarian = system: OVCAR-4 ovarian
T-47D breast = system: T-47D breast
SNB-19 CNS = system: SNB-19 CNS
MCF7 breast = system: MCF7 breast
786-0 renal = system: 786-0 renal
K-562 leukemia = system: K-562 leukemia
NCI-H226 lung = system: NCI-H226 lung
SK-MEL-5 melanoma = system: SK-MEL-5 melanoma
A549 NSCLC = system: A549 NSCLC
HOP-92 NSCLC = system: HOP-92 NSCLC
SNB-75 CNS = system: SNB-75 CNS
NCI-H23 lung = system: NCI-H23 lung
NCI-H460 lung = system: NCI-H460 lung
SF-295 CNS = system: SF-295 CNS
A498 renal = system: A498 renal
HCT-116 colon = system: HCT-116 colon
RPMI-8226 leukemia = system: RPMI-8226 leukemia
UO-31 renal = system: UO-31 renal
HL-60(TB) leukemia = system: HL-60(TB) leukemia
SN12C renal = system: SN12C renal
M14 melanoma = system: M14 melanoma
TK-10 renal = system: TK-10 renal
HCC-2998 colon = system: HCC-2998 colon
HOP-62 NSCLC = system: HOP-62 NSCLC
CAKI-1 renal = system: CAKI-1 renal
UACC-62 melanoma = system: UACC-62 melanoma
MOLT-4 leukemia = system: MOLT-4 leukemia
MALME-3M melanoma = system: MALME-3M melanoma
ACHN renal = system: ACHN renal
OVCAR-5 ovarian = system: OVCAR-5 ovarian
SK-MEL-28 melanoma = system: SK-MEL-28 melanoma
HCT-15 colon = system: HCT-15 colon
SK-OV-3 ovarian = system: SK-OV-3 ovarian
COLO 205 colon = system: COLO 205 colon
SR leukemia = system: SR leukemia
CCRF-CEM leukemia = system: CCRF-CEM leukemia
HT29 colon = system: HT29 colon
SF-539 CNS = system: SF-539 CNS
SW-620 colon = system: SW-620 colon
NCI-H522 lung = system: NCI-H522 lung
KM12 colon = system: KM12 colon
EKVX NSCLC = system: EKVX NSCLC
DU-145 prostate = system: DU-145 prostate
OVCAR-3 ovarian = system: OVCAR-3 ovarian
MDA-MB-231 breast = system: MDA-MB-231 breast
RXF 393 renal = system: RXF 393 renal
MDA-MB-435 = system: MDA-MB-435

COc1ccc(Cc2cnc(NC(=O)c3ccc4c(c3)OCCO4)s2)cc1 showed a GI50 (IGROV1 ovarian) of 0.0485 µM, a TGI (IGROV1 ovarian) greater than 55.2 µM and a GI50 (OVCAR-8 ovarian) of 0.0426 µM. The TGI (OVCAR-8 ovarian) was greater than 100 µM, the GI50 (SF-268 CNS) was 0.211 µM and the TGI (SF-268 CNS) was greater than 100 µM. The GI50 (LOX IMVI melanoma) was 0.0456 µM, the TGI (LOX IMVI melanoma) was greater than 100 µM and the GI50 (UACC-257 melanoma) was 4.83 µM. It also gave a TGI (UACC-257 melanoma) greater than 100 µM, a GI50 (U251 CNS) of 0.0388 µM and a TGI (U251 CNS) greater than 85.8 µM. The GI50 (HS 578T breast) was 0.0311 µM, the TGI (HS 578T breast) was greater than 76 µM and the GI50 (NCI/ADR-RES ovarian) was 0.024 µM. For the same compound, the TGI (NCI/ADR-RES ovarian) was greater than 100 µM, the GI50 (SK-MEL-2 melanoma) was 0.0545 µM and the TGI (SK-MEL-2 melanoma) was greater than 78.4 µM. It also gave a GI50 (PC-3 prostate) of 0.0303 µM, a TGI (PC-3 prostate) greater than 100 µM and a GI50 (BT-549 breast) of 0.0357 µM. It also gave a TGI (BT-549 breast) greater than 49.5 µM, a GI50 (OVCAR-4 ovarian) of 0.0836 µM and a TGI (OVCAR-4 ovarian) greater than 100 µM. For the same compound, the GI50 (T-47D breast) was 2.95 µM, the TGI (T-47D breast) was greater than 100 µM and the GI50 (SNB-19 CNS) was 0.0523 µM. The TGI (SNB-19 CNS) was 43.2 µM, the GI50 (MCF7 breast) was 0.0307 µM and the TGI (MCF7 breast) was greater than 100 µM. The GI50 (786-0 renal) was 0.0493 µM, the TGI (786-0 renal) was greater than 74.3 µM and the GI50 (K-562 leukemia) was 0.0157 µM. It also gave a TGI (K-562 leukemia) greater than 100 µM, a GI50 (NCI-H226 lung) of 1.72 µM and a TGI (NCI-H226 lung) of 88.5 µM. It also gave a GI50 (SK-MEL-5 melanoma) of 0.0268 µM, a TGI (SK-MEL-5 melanoma) of 0.168 µM and a GI50 (A549 NSCLC) of 0.044 µM. For the same compound, the TGI (A549 NSCLC) was greater than 100 µM, the GI50 (HOP-92 NSCLC) was 3.62 µM and the TGI (HOP-92 NSCLC) was greater than 76.6 µM. It also gave a GI50 (SNB-75 CNS) of 0.0192 µM, a TGI (SNB-75 CNS) of 44 µM and a GI50 (NCI-H23 lung) of 0.0537 µM. The TGI (NCI-H23 lung) was greater than 100 µM, the GI50 (NCI-H460 lung) was 0.0344 µM and the TGI (NCI-H460 lung) was 26 µM. The GI50 (SF-295 CNS) was 0.0242 µM, the TGI (SF-295 CNS) was 20.8 µM and the GI50 (A498 renal) was 0.0159 µM. The TGI (A498 renal) was 0.0592 µM, the GI50 (HCT-116 colon) was 0.032 µM and the TGI (HCT-116 colon) was greater than 38.8 µM. It also gave a GI50 (RPMI-8226 leukemia) of 0.0499 µM, a TGI (RPMI-8226 leukemia) greater than 100 µM and a GI50 (UO-31 renal) of 1.2 µM. The TGI (UO-31 renal) was greater than 100 µM, the GI50 (HL-60(TB) leukemia) was 0.0409 µM and the TGI (HL-60(TB) leukemia) was greater than 100 µM. For the same compound, the GI50 (SN12C renal) was 0.0556 µM, the TGI (SN12C renal) was greater than 100 µM and the GI50 (M14 melanoma) was 0.0228 µM. It also gave a TGI (M14 melanoma) of 22.4 µM, a GI50 (TK-10 renal) of 0.406 µM and a TGI (TK-10 renal) of 35.3 µM. It also gave a GI50 (HCC-2998 colon) of 0.038 µM, a TGI (HCC-2998 colon) greater than 69.6 µM and a GI50 (HOP-62 NSCLC) of 0.0602 µM. For the same compound, the TGI (HOP-62 NSCLC) was greater than 100 µM, the GI50 (CAKI-1 renal) was less than 0.0123 µM and the TGI (CAKI-1 renal) was 15.6 µM. The GI50 (UACC-62 melanoma) was 0.0292 µM, the TGI (UACC-62 melanoma) was 40.6 µM and the GI50 (MOLT-4 leukemia) was 0.0504 µM. It also gave a TGI (MOLT-4 leukemia) greater than 100 µM, a GI50 (MALME-3M melanoma) of 1.52 µM and a TGI (MALME-3M melanoma) greater than 61.6 µM. For the same compound, the GI50 (ACHN renal) was 0.0553 µM, the TGI (ACHN renal) was greater than 100 µM and the GI50 (OVCAR-5 ovarian) was 0.0866 µM. The TGI (OVCAR-5 ovarian) was greater than 72.6 µM, the GI50 (SK-MEL-28 melanoma) was 3.75 µM and the TGI (SK-MEL-28 melanoma) was greater than 83.8 µM. For the same compound, the GI50 (HCT-15 colon) was 0.0167 µM, the TGI (HCT-15 colon) was greater than 100 µM and the GI50 (SK-OV-3 ovarian) was 0.0321 µM. The TGI (SK-OV-3 ovarian) was greater than 100 µM, the GI50 (COLO 205 colon) was 0.0289 µM and the TGI (COLO 205 colon) was 0.319 µM. The GI50 (SR leukemia) was 0.0114 µM, the TGI (SR leukemia) was greater than 100 µM and the GI50 (CCRF-CEM leukemia) was 0.0388 µM. The TGI (CCRF-CEM leukemia) was greater than 100 µM, the GI50 (HT29 colon) was 0.0418 µM and the TGI (HT29 colon) was greater than 55.4 µM. The GI50 (SF-539 CNS) was 0.0257 µM, the TGI (SF-539 CNS) was 0.714 µM and the GI50 (SW-620 colon) was 0.0338 µM. The TGI (SW-620 colon) was greater than 100 µM, the GI50 (NCI-H522 lung) was less than 0.0125 µM and the GI50 (KM12 colon) was 0.0264 µM. For the same compound, the TGI (KM12 colon) was 11.1 µM, the GI50 (EKVX NSCLC) was 0.0596 µM and the TGI (EKVX NSCLC) was greater than 100 µM. For the same compound, the GI50 (DU-145 prostate) was 0.037 µM, the TGI (DU-145 prostate) was greater than 41.1 µM and the GI50 (OVCAR-3 ovarian) was 0.0221 µM. For the same compound, the TGI (OVCAR-3 ovarian) was 0.0658 µM, the GI50 (MDA-MB-231 breast) was 0.0379 µM and the TGI (MDA-MB-231 breast) was 22.6 µM.
COc1ccc2c(c1)CCN=C2c1ccccc1CCCCl showed a TGI (IGROV1 ovarian) greater than 100 µM, a TGI (OVCAR-8 ovarian) greater than 100 µM and a TGI (SF-268 CNS) greater than 100 µM. The TGI (UACC-257 melanoma) was greater than 100 µM, the TGI (U251 CNS) was greater than 100 µM and the TGI (HS 578T breast) was 96.5 µM. It also gave a TGI (NCI/ADR-RES ovarian) greater than 100 µM, a TGI (SK-MEL-2 melanoma) greater than 100 µM and a TGI (PC-3 prostate) greater than 100 µM. It also gave a TGI (BT-549 breast) greater than 100 µM, a TGI (OVCAR-4 ovarian) of 52.2 µM and a TGI (T-47D breast) greater than 100 µM. The TGI (SNB-19 CNS) was 40.1 µM, the TGI (MCF7 breast) was greater than 100 µM and the TGI (786-0 renal) was greater than 100 µM. For the same compound, the TGI (K-562 leukemia) was greater than 100 µM, the TGI (NCI-H226 lung) was greater than 100 µM and the TGI (SK-MEL-5 melanoma) was 13.3 µM. It also gave a TGI (A549 NSCLC) greater than 100 µM, a TGI (HOP-92 NSCLC) greater than 100 µM and a TGI (SNB-75 CNS) greater than 100 µM. It also gave a TGI (NCI-H23 lung) of 39.8 µM, a TGI (NCI-H460 lung) of 28.5 µM and a TGI (SF-295 CNS) greater than 100 µM. It also gave a TGI (A498 renal) greater than 100 µM, a TGI (HCT-116 colon) of 61.3 µM and a TGI (RPMI-8226 leukemia) of 11.8 µM. It also gave a TGI (UO-31 renal) of 26.7 µM, a TGI (HL-60(TB) leukemia) greater than 100 µM and a TGI (SN12C renal) of 54.4 µM. The TGI (M14 melanoma) was greater than 100 µM, the TGI (TK-10 renal) was greater than 100 µM and the TGI (HCC-2998 colon) was 24.9 µM. It also gave a TGI (HOP-62 NSCLC) greater than 100 µM, a TGI (CAKI-1 renal) of 70.2 µM and a TGI (RXF 393 renal) of 82.1 µM. It also gave a TGI (UACC-62 melanoma) greater than 100 µM, a TGI (MOLT-4 leukemia) of 42.4 µM and a TGI (ACHN renal) of 64.9 µM. It also gave a TGI (OVCAR-5 ovarian) greater than 100 µM, a TGI (SK-MEL-28 melanoma) greater than 100 µM and a TGI (HCT-15 colon) of 74.1 µM. It also gave a TGI (SK-OV-3 ovarian) greater than 100 µM, a TGI (MDA-MB-435) greater than 100 µM and a TGI (COLO 205 colon) of 23.4 µM. It also gave a TGI (CCRF-CEM leukemia) greater than 100 µM, a TGI (HT29 colon) of 58.2 µM and a TGI (SF-539 CNS) of 45.6 µM. It also gave a TGI (SW-620 colon) greater than 100 µM, a TGI (NCI-H522 lung) of 52.5 µM and a TGI (KM12 colon) greater than 100 µM. For the same compound, the TGI (EKVX NSCLC) was greater than 100 µM, the TGI (DU-145 prostate) was greater than 100 µM and the TGI (OVCAR-3 ovarian) was greater than 100 µM. It also gave a TGI (MDA-MB-231 breast) of 63.7 µM.
